Target: T1, human mAChR M1 (Homo sapiens, UniProt P11229)
T1 sequence (P11229 1-460): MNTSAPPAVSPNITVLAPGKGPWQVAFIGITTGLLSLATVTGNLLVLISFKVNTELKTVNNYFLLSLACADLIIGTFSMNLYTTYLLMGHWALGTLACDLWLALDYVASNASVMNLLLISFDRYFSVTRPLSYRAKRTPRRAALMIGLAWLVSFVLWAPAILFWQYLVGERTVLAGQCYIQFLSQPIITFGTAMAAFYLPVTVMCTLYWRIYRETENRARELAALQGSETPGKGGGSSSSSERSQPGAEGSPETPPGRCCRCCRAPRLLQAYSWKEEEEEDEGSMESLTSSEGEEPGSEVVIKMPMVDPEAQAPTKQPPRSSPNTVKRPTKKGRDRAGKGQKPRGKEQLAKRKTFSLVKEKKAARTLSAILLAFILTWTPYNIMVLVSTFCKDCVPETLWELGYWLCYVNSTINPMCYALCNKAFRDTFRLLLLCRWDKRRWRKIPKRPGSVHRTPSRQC
Assay: mAChR M1 cell-based functional assay (calcium mobilization, PAM activity)
Conditions: CHO-K1 cells expressing hM1, calcium flux (Fluo-4); for EC50: concentration-dependent increase in the EC20 acetylcholine response; for Emax: potentiation of EC20 acetylcholine response
Description: Chinese hamster ovary (CHO-K1) cells stably expressing rat (r)M1 were purchased from the American Type Culture Collection and cultured according to their indicated protocol. CHO cells stably expressing human (h)M2, hM3, and hM5 were described previously (Levey, et al., 1991); hM1 and hM4 cDNAs were purchased from Missouri S&T cDNA Resource; rM4 cDNA was provided by T. I. Bonner (National Institutes of Health, Bethesda, Md.). rM2 and rM3 were cloned from a rat brain cDNA library and sequence verified. hM1, rM2, rM3, hM4, and rM4 cDNAs were used to stably transfect CHO-K1 cells purchased from the American Type Culture Collection using Lipofectamine 2000. To make stable rM2, hM2, rM3, hM4, and rM4 cell lines for use in calcium mobilization assays, these cells also were stably transfected with a chimeric G-protein (Gqi5) (provided by B. R. Conklin, University of California, San Francisco) using Lipofectamine 2000. rM1, hM1, rM3, hM3, rM5, and hM5 cells were grown in Ham's F-12 medium containing 10% heat-inactivated fetal bovine serum (FBS), 20 mM HEPES, and 50 μg/mL G418 sulfate. rM2-Gqi5, hM2-Gqi5, and hM4-Gqi5 cells were grown in the same medium also containing 500 μg/mL Hygromycin B. Stable rM4-Gqi5 cells were grown in DMEM containing 10% heat-inactivated FBS, 20 mM HEPES, 400 μg/mL G418 sulfate, and 500 μg/mL Hygromycin B.
For high throughput measurement of agonist-evoked increases in intracellular calcium, CHO-K1 cells stably expressing muscarinic receptors were plated in growth medium lacking G418 and hygromycin at 15,000 cells/20 μL/well in Greiner 384-well black-walled, tissue culture (TC)-treated, clear-bottom plates (VWR). Cells were incubated overnight at 37° C. and 5% CO2. The next day, cells were washed using an ELX 405 (BioTek) with four washes (80 μL) of assay buffer then aspirated to 20 μL. Next, 20 μL of 16 μM Fluo-4/acetoxymethyl ester (Invitrogen, Carlsbad, Calif.) prepared as a 2.3 mM stock in DMSO and mixed in a 1:1 ratio with 10% (w/v) Pluronic F-127 and diluted in assay buffer was added to the wells and the cell plates were incubated for 50 min at 37° C. and 5% CO2. Dye was removed by washing with the ELX 405 (four 80 μL washes of assay buffer) then aspirated to 20 μL. Compound master plates were formatted in an 11 point CRC format (1:3 dilutions) in 100% DMSO with a starting concentration of 10 mM using the BRAVO liquid handler (Agilent). Test compound CRCs were then transferred to daughter plates (240 nL) using the Echo acoustic plate reformatter (Labcyte, Sunnyvale, Calif.) and then diluted into assay buffer (40 μL) to a 2× stock using a Thermo Fisher Combi (Thermo Fisher Scientific, Waltham, Mass.).
Calcium flux was measured using the Functional Drug Screening System (FDSS) 6000 (Hamamatsu Corporation, Tokyo, Japan) as an increase in the fluorescent static ratio. Compounds were applied to cells (20 μL, 2×) using the automated system of the FDSS 6000 at 4 s into the 300 s protocol and the data were collected at 1 Hz. At 144 s into the 300s protocol, 10 μL of an EC20 concentration of the muscarinic receptor agonist acetylcholine was added (5×), followed by the addition of 12 μL an EC80 concentration of acetylcholine at the 230 s time point (5×). Agonist activity was analyzed as a concentration-dependent increase in calcium mobilization upon compound addition. Emax values for agonist activity are expressed relative to the maximum for acetylcholine. Positive allosteric modulator activity was analyzed as a concentration-dependent increase in the EC20 acetylcholine response. Antagonist activity was analyzed as a concentration-dependent decrease in the EC80 acetylcholine response. Concentration-response curves were generated using a four-parameter logistical equation in XLfit curve fitting software (IDBS, Bridgewater, N.J.) for Excel (Microsoft, Redmond, Wash.) or Prism (GraphPad Software, Inc., San Diego, Calif.). […]

Compound | EC50 [nM] | Emax [%]
Cn1ccc(-c2ccc(Cc3cc(C(=O)NC4CCOCC4)c4nccn4c3)cc2)n1 [compound 1, 6-[[4-(1-methylpyrazol-3-yl)phenyl]methyl]-N-tetrahydropyran-4-yl-imidazo[1,2-a]pyridine-8-carboxamide] | 6340 | 68
Cn1ccc(-c2ccc(Cc3cc(C(=O)N[C@@H]4CCCC[C@H]4O)c4nccn4c3)cc2)n1 [compound 2, N-[(1R,2R)-2-hydroxycyclohexyl]-6-[[4-(1-methylpyrazol-3-yl)phenyl]methyl]imidazo[1,2-a]pyridine-8-carboxamide] | 313 | 77
Cn1ccc(-c2ccc(Cc3cc(C(=O)NC4CC5(COC5)C4)c4nccn4c3)cc2)n1 [compound 3, 6-[[4-(1-methylpyrazol-3-yl)phenyl]methyl]-N-(2-oxaspiro[3.3]heptan-6-yl)imidazo[1,2-a]pyridine-8-carboxamide] | 4290 | 76
Cn1ccc(-c2ccc(Cc3cc(C(=O)N[C@@H]4CCC[C@H]4O)c4nccn4c3)cc2)n1 [compound 4, N-[(1R,2R)-2-hydroxycyclopentyl]-6-[[4-(1-methylpyrazol-3-yl)phenyl]methyl]imidazo[1,2-a]pyridine-8-carboxamide] | 1500 | 80
Cn1ccc(-c2ccc(Cc3cc(C(=O)N[C@@H]4CCOC[C@H]4O)c4nccn4c3)cc2)n1 [compound 5, N-[(3S,4R)-3-hydroxytetrahydropyran-4-yl]-6-[[4-(1-methylpyrazol-3-yl)phenyl]methyl]imidazo[1,2-a]pyridine-8-carboxamide] | 384 | 78
Cn1ccc(-c2ccc(Cc3cc(C(=O)N[C@H]4CCOC[C@@H]4O)c4ncnn4c3)cc2)n1 [compound 6, N-[(3R,4S)-3-hydroxytetrahydropyran-4-yl]-6-[[4-(1-methylpyrazol-3-yl)phenyl]methyl]-[1,2,4]triazolo[1,5-a]pyridine-8-carboxamide] | 790 | 85
Cn1ccc(-c2ccc(Cc3cc(C(=O)N[C@H]4CCCC[C@@H]4O)c4ncnn4c3)cc2)n1 [compound 7, N-[(1S,2S)-2-hydroxycyclohexyl]-6-[[4-(1-methylpyrazol-3-yl)phenyl]methyl]-[1,2,4]triazolo[1,5-a]pyridine-8-carboxamide] | 483 | 86
Cn1ccc(-c2ccc(Cc3cc(C(=O)NC4CCOCC4)c4ncnn4c3)cc2)n1 [compound 8, 6-[[4-(1-methylpyrazol-3-yl)phenyl]methyl]-N-tetrahydropyran-4-yl-[1,2,4]triazolo[1,5-a]pyridine-8-carboxamide] |  | 53
Cn1ccc(-c2ccc(Cc3cc(C(=O)NC4CC5(COC5)C4)c4ncnn4c3)cc2)n1 [compound 9, 6-[[4-(1-methylpyrazol-3-yl)phenyl]methyl]-N-(2-oxaspiro[3.3]heptan-6-yl)-[1,2,4]triazolo[1,5-a]pyridine-8-carboxamide] | 4860 | 66
Cn1ccc(-c2ccc(Cc3cc(C(=O)N[C@@H]4CC[C@H]4O)c4ncnn4c3)cc2)n1 [compound 10, N-[(1R,2R)-2-hydroxycyclobutyl]-6-[[4-(1-methylpyrazol-3-yl)phenyl]methyl]-[1,2,4]triazolo[1,5-a]pyridine-8-carboxamide] | 4070 | 74

The remaining lines, values ahead:

EC50 [nM] | Emax [%] | Compound
2540 | 88 | Cn1ccc(-c2ccc(Cc3cc(C(=O)N[C@H]4CCC[C@@H]4O)c4ncnn4c3)cc2)n1 [compound 11, N-[(1S,2S)-2-hydroxycyclopentyl]-6-[[4-(1-methylpyrazol-3-yl)phenyl]methyl]-[1,2,4]triazolo[1,5-a]pyridine-8-carboxamide]
903 | 83 | Cn1cc(-c2ccc(Cc3cc(C(=O)N[C@H]4CCOC[C@@H]4O)c4ncnn4c3)cn2)cn1 [compound 12, N-[(3R,4S)-3-hydroxytetrahydropyran-4-yl]-6-[[6-(1-methylpyrazol-4-yl)-3-pyridyl]methyl]-[1,2,4]triazolo[1,5-a]pyridine-8-carboxamide]
729 | 84 | Cn1cc(-c2ccc(Cc3cc(C(=O)N[C@H]4CCCC[C@@H]4O)c4ncnn4c3)cn2)cn1 [compound 13, N-[(1S,2S)-2-hydroxycyclohexyl]-6-[[6-(1-methylpyrazol-4-yl)-3-pyridyl]methyl]-[1,2,4]triazolo[1,5-a]pyridine-8-carboxamide]
 | 45 | Cn1cc(-c2ccc(Cc3cc(C(=O)NC4CCOCC4)c4ncnn4c3)cn2)cn1 [compound 14, 6-[[6-(1-methylpyrazol-4-yl)-3-pyridyl]methyl]-N-tetrahydropyran-4-yl-[1,2,4]triazolo[1,5-a]pyridine-8-carboxamide]
 | 65 | Cn1cc(-c2ccc(Cc3cc(C(=O)NC4CC5(COC5)C4)c4ncnn4c3)cn2)cn1 [compound 15, 6-[[6-(1-methylpyrazol-4-yl)-3-pyridyl]methyl]-N-(2-oxaspiro[3.3]heptan-6-yl)-[1,2,4]triazolo[1,5-a]pyridine-8-carboxamide]
 | 67 | Cn1cc(-c2ccc(Cc3cc(C(=O)N[C@@H]4CC[C@H]4O)c4ncnn4c3)cn2)cn1 [compound 16, N-[(1R,2R)-2-hydroxycyclobutyl]-6-[[6-(1-methylpyrazol-4-yl)-3-pyridyl]methyl]-[1,2,4]triazolo[1,5-a]pyridine-8-carboxamide]
3770 | 86 | Cn1cc(-c2ccc(Cc3cc(C(=O)N[C@H]4CCC[C@@H]4O)c4ncnn4c3)cn2)cn1 [compound 17, N-[(1S,2S)-2-hydroxycyclopentyl]-6-[[6-(1-methylpyrazol-4-yl)-3-pyridyl]methyl]-[1,2,4]triazolo[1,5-a]pyridine-8-carboxamide]
4440 | 81 | O=C(N[C@H]1CCOC[C@@H]1O)c1cc(Cc2ccc(-n3cccn3)cc2)cc2ncnn12 [compound 18, N-[(3R,4S)-3-hydroxytetrahydropyran-4-yl]-7-[(4-pyrazol-1-ylphenyl)methyl]-[1,2,4]triazolo[1,5-a]pyridine-5-carboxamide]
1710 | 74 | O=C(N[C@H]1CCCC[C@@H]1O)c1cc(Cc2ccc(-n3cccn3)cc2)cn2cnnc12 [compound 19, N-[(1S,2S)-2-hydroxycyclohexyl]-6-[(4-pyrazol-1-ylphenyl)methyl]-[1,2,4]triazolo[4,3-a]pyridine-8-carboxamide]
1190 | 82 | O=C(N[C@H]1CCCC[C@@H]1O)c1cc(Cc2ccc(-n3cccn3)cc2)cc2ncnn12 [compound 20, N-[(1S,2S)-2-hydroxycyclohexyl]-7-[(4-pyrazol-1-ylphenyl)methyl]-[1,2,4]triazolo[1,5-a]pyridine-5-carboxamide]

— patent US20200131180A1, “POSITIVE ALLOSTERIC MODULATORS OF THE MUSCARINIC ACETYLCHOLINE RECEPTOR M1” (Vanderbilt University, priority 2018, published 2020)
